Target: T1, Dual specificity protein kinase TTK (Homo sapiens, UniProt P33981)
T1 sequence (P33981 whole entry): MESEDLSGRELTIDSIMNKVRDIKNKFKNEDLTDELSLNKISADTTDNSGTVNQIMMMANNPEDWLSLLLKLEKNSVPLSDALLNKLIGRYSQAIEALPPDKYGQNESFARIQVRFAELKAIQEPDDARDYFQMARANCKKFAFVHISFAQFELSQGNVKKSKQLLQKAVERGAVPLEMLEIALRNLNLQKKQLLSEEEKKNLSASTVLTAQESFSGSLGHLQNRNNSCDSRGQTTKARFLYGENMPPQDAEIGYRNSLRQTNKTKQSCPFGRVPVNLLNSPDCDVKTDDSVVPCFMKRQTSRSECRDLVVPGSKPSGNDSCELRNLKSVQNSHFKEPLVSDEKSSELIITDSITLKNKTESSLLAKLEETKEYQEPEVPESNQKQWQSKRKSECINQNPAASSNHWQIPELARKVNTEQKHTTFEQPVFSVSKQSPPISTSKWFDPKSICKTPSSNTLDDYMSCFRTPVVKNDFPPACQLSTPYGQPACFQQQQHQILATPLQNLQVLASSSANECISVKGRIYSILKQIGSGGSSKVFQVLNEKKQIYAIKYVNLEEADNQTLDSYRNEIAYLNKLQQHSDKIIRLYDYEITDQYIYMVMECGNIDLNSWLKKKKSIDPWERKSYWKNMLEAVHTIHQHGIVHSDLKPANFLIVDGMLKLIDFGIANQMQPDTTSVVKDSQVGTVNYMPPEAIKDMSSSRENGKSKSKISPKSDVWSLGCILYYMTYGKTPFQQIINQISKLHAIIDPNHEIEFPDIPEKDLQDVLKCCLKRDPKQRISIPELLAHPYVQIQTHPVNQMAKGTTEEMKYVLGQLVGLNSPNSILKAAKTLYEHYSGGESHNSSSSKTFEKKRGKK

SMILES: C#Cc1cn2c(-c3ccc(C(=O)NC4C[C@@H]4F)c(C)c3)cnc2c(NCCC(F)(F)F)n1 (stereo in doubt)
- IC50: 36 nM

Source: ChEMBL document CHEMBL3886392, “Substituted imidazopyrazines” (2015)
